These results are taken from a melting point compilation (Tetko et al.; mined from patent text by program, amines drawn as free bases though some values may be those of a salt).

For the compound `C=C(C#N)CN1CCC(C(=O)O)CC1`, the melting point lay within 109 to 111 °C.
On to `CCCC1=C(c2ccc(F)c(F)c2)C(=NO)CC1`, for which the melting point was 136 to 137 °C.
In the case of `CN1C(=O)N(C[C@H](CO)[C@@H](CC2CCCC2)C(=O)N2CCCCC2)C(=O)C1(C)C`, the melting point lay within 92 to 95 °C.
For `Cc1c(NC(=O)c2ccc(-c3ccc4c(c3)OCO4)cc2F)ccc2cc(CN3CCCC3)cnc12` the value was 181 to 182 °C; for `COC(=O)CC1COc2ccc(N)cc2C1` (centres undefined), 104 to 106 °C.
For `CC(C)N1C(=O)c2cccnc2NS1(=O)=O`, the melting point turned out to be 190 °C.
For `NC(=O)CCCCCCCCCCC(Cl)(Cl)C(=O)O` the value was 93 to 94 °C; for `O=[N+]([O-])c1cc([N+](=O)[O-])c(N(SC(Cl)(Cl)Cl)c2cc(C(F)(F)F)ccc2Cl)c(C(F)(F)F)c1`, 134 to 137 °C.
The compound `Cc1cccc(Cl)c1OC1CN(C(=O)Cl)C1` had a melting point of 67 to 69 °C.
The same measure for `CN(Cc1ccc(C(=O)Cn2cnc3cc(-c4ccc(Cl)cc4)sc3c2=O)cc1)C(=O)C(F)(F)F`: 235 to 238 °C; for `CCCn1c(=O)nc(SC)c2c1ncn2COCc1ccccc1`: 167 to 168 °C.
The same measure for `Cc1nc(-n2cccc(C(=O)Nc3ccccc3)c2=O)sc1C(=O)NCc1ccccc1`: 225 to 227 °C; for `CCOC(=O)C1=C(COCCNCC(N)=O)NC(C)=C(C(=O)OC)C1c1ccccc1Cl` (centres undefined): 126 to 129 °C; for `CC(C)n1nc(COc2ccccc2CC(=O)O)cc1OCc1ccc2ccccc2n1`: 116 to 117 °C.
The compound `COC1OC(=O)c2cccc([N+](=O)[O-])c21` (centres undefined) registered a melting point of 115 to 118 °C.
For `CC1CC(C)CN(Cc2ccc(C=CC(=O)Nc3ccc(-c4ccc(Cl)cc4)cc3)cc2)C1` (centres undefined) the value was 217 to 218 °C; for `CCOc1ccc(-c2nc(C=O)cs2)cc1OCC`, 84 to 87 °C.
The same measure for `CCCCC1(N(C)C)CCC(c2[nH]c3ccc(F)cc3c2C)(c2[nH]c3ccccc3c2C(COC(N)=O)c2ccccc2)CC1` (centres undefined): 101 to 105 °C; for `Cc1cccc(C(=O)Nc2c[nH]nc2C(=O)NCCCO)n1`: 196 to 197 °C; for `C#CCC(C(=COC)c1cccnc1)c1ccc(Cl)cc1Cl` (centres undefined): 96 to 97 °C.
The same measure for `BrCCOc1ccc(Cn2cccn2)cc1`: 63 to 65 °C.
`O=C(O)C1CCC(c2ccccc2)n2c(=O)n(CCS)c(=O)n21` (centres undefined) showed a melting point of 172 to 175 °C.
For `FC(F)(F)c1cc(Cl)c2cc(Cl)cc(Cl)c2n1` the value was 74 to 76 °C.
For `CNc1nsnc1-c1c(Cl)cccc1Cl` the value was 145 to 146 °C.
With `O=C(Nc1cc(Cl)ccn1)c1ccccn1`, the melting point was in the range of 118 to 120 °C.
As for `CC(=O)c1cc(S)c(Cl)cc1CC(=O)OCF`, the melting point was 125 to 126 °C.
The same measure for `N#Cc1cc(C=O)ccc1-n1cnc([N+](=O)[O-])n1`: 170 to 172 °C.
With `O=c1cc(-c2ccc(O)c(-c3cccs3)c2)oc2ncccc12`, the melting point was 274 to 275 °C.
For `COc1cc(Cl)cc2nc(S(=O)(=O)Nc3c(Cl)cccc3Cl)nn12` the value was 232 to 234 °C; for `FC(F)(F)c1cccc(-c2[nH]c(C3CCNCC3)cc2-c2ccncc2)c1`, 106 to 112 °C; for `CCCn1nc(-c2ccc(OC)cc2)cc(C(=O)OC)c1=O`, 105 to 106 °C.
In the case of `S=c1ncn(-c2ccc(Cl)cc2)[nH]1`, the melting point was in the range of 222 to 224 °C.
For `CCc1cccc2c1nc(-c1c(F)cccc1F)n2Cc1c(F)cccc1F` the value was 165 to 166 °C; for `CC(=O)c1ccc(SCC(=O)O)cc1`, 151 to 153 °C; for `CC12CCC3C(CC=C4CC(O[Si](C)(C)C)CCC43C)C1CCC2=O` (centres undefined), 173 to 174 °C.
Compound `COc1cc2c(cc1O)CCC1C2CCC2(C)C(O)C=CC12` (centres undefined) had a melting point of 191 to 193 °C.
For `Cc1ccc(COc2ncc(F)c(NS(C)(=O)=O)n2)cc1` the value was 145 to 148 °C; for `CN(C)C(=O)Nc1cc(C(F)(F)F)on1`, 126 °C.
Regarding `COCC1CN(c2ccc(C3CCC(OC(C)=O)CC3)cc2)C(=O)O1` (racemic), the melting point lay in the range of 78 to 79 °C.
For `Cc1c(OCc2ccccn2)nn2c(-c3ccccc3)nnc2c1C` the value was 185 °C; for `O=C1C=C(Oc2ccc(Oc3ccccc3)cc2)C(O)O1` (centres undefined), 107 to 108 °C; for `COC(=O)c1ccc(Cl)c(CBr)c1Cl`, 51 to 54 °C.
Take `CCCn1c(CCO)nc2c(N)nc3cc(OCCCNC(=O)c4cccnc4)ccc3c21`: the melting point is 184 °C.
For `COc1cc2nc(N3CCN(C(=O)C=Cc4ccc(Br)cc4)CC3)nc(N)c2cc1OC` the value was 266 to 268 °C; for `COc1cc(C)cc(OC)c1NC1C2CC3CC(C2)CC1C3` (centres undefined), 100 °C.
For `O=C1Cc2ccccc2N1c1c(Cl)cc(OCc2ccc3ccccc3n2)cc1Cl` the value was 158 °C; for `CCOC(=O)C(C)(C)Sc1ccc(OCCn2c(C)nc3ccccc3c2=O)cc1`, 188 to 190 °C.
The same measure for `CCOC(=NC(=O)c1cccc2ccccc12)c1ccc(Br)cc1`: 104 to 105 °C; for `O=C(O)c1cccc(S(=O)(=O)CCO)c1[N+](=O)[O-]`: 178 to 181 °C.
Regarding `O=C(O)c1ccc(C(=O)NCCc2ccccc2)cc1`, the melting point is 237 to 238 °C.
The same measure for `COc1ccc(NC(=O)c2ccccc2-c2cccc(OC)c2)cc1`: 107 to 109 °C; for `CCOC(=O)C(C)Oc1ccc2c(c1)N(C)C(=O)N(c1ccc(Cl)cc1)S2(=O)=O` (centres undefined): 111 to 112 °C; for `CC(=O)Oc1cc([N+](=O)[O-])ccc1CN1C(=O)c2ccccc2C1=O`: 175 to 178 °C.
For the compound `CCCCCCCCOc1ccc2c(c1OCCCCCCCC)C(=O)c1ccccc1C2=O`, the melting point was 91 to 94 °C.
In the case of `CS(=O)(=O)Nc1cccc(C2=Nc3ccc(-c4ccc(F)cc4)cc3NC(=O)C2)c1`, the melting point lay within 232 to 235 °C.
The compound `O=C(O)c1ccccc1Oc1ccc(C(F)(F)F)cc1NS(=O)(=O)c1ccc(C(F)(F)F)cc1` displayed a melting point of 175 °C.
For `Cc1nc2cc(NC(=O)c3cc4cc(C(F)(F)F)cnc4n3Cc3cccc(F)c3)ccc2n1C` the value was 263 to 265 °C; for `CC1(c2ccc(N)cc2F)CNC1=O` (centres undefined), 125 to 127 °C; for `O=C(NC(=O)c1c(F)cccc1F)Nc1cc(Cl)cc(C(F)(F)F)c1Cl`, 205 to 208 °C.
Compound `Cc1c(O)cc(OC(=O)Cc2ccc(CC(=O)Oc3cc(O)c(C)c(O)c3)cc2)cc1O` displayed a melting point of 276 to 278 °C.
The same measure for `CN1CC(CN2CC(=O)NC2=O)=CC2c3cccc4[nH]cc(c34)CC21` (centres undefined): 204 to 206 °C; for `COc1ccc(CON(Cc2ccccc2)S(C)(=O)=O)cc1`: 85 to 87 °C.
In turn, `CC(C)(C)OC(=O)NCCCCNC1(c2ccccc2Cl)C(=O)Nc2ccc(Cl)cc21` (centres undefined) had a melting point of 175 to 176 °C.
The same measure for `COC(=O)c1ccc(C(=O)c2ccc(CCl)cc2)cc1`: 122 to 125 °C; for `CSCC[C@@H](NC(=O)OC(C)(C)C)C(=O)Nc1ccc(N2C[C@H](CNC(=O)c3ccc(Cl)s3)OC2=O)cc1`: 183 °C; for `CCC1(CC)C(=O)N(CCO)CC(C)(C)N1OC(C)(C)C#N`: 80 to 82 °C.
Consider `Fc1ccc(/C=C/c2nc(COc3cccc(CCCn4ccnn4)c3)co2)c(F)c1`, for which the melting point was in the range of 89 to 90 °C.
For `COCC(O)Cc1ccc(-c2ccc3cc(C(=O)O)ccc3c2)cc1C12CC3CC(CC(C3)C1)C2` (centres undefined) the value was 240 to 242 °C.
The compound `CC(C)NCCC(CCN1CCCCC1)(C(N)=O)c1ccccc1Cl` (centres undefined) returned a melting point of 134 to 137 °C.
For `Cc1cccc(C)c1NC(=O)C(C)N1CCN(CCC2CCOc3ccccc32)CC1` (centres undefined) the value was 130 °C.
The same measure for `Cc1[nH]c2ccccc2c1Cc1cccnc1`: 207 to 210 °C; for `CCOC(=O)CCCC(=O)c1ccc(F)cc1`: 46 to 47 °C; for `O=CN1CCN(S(=O)(=O)CCCOc2ccc3c(c2)CC2NC(=O)NC2=N3)CC1` (centres undefined): 285 to 288 °C.
For `CN1C(=O)C[C@@H](c2ccccc2)[C@H]1CO` the value was 93 to 95 °C.
Regarding `OC(c1ccccc1)(c1ccccc1)c1ccncc1`, the melting point is 238 to 240 °C.
The same measure for `CS(=O)(=O)c1ccc(C=Cc2ccc(OCCO)cc2)cc1`: 224 to 226 °C.
The same measure for `CC(C)(C)OC(=O)c1ccc(CN(CCc2ccccc2)C(=O)OC(C)(C)C)c(N)c1`: 105 to 106 °C; for `CC(=O)C(O)C1OC(n2cc(Br)c(=O)[nH]c2=O)CC1N=[N+]=[N-]` (centres undefined): 112 to 114 °C; for `COC(=O)CCc1cc2nc(Cl)ccc2n1S(=O)(=O)c1ccc2nc(N)sc2c1`: 205 to 215 °C.
For the compound `CC(C)(C)OC(=O)Nc1ccc(C#Cc2ccc(OC(F)(F)F)cc2)cc1[N+](=O)[O-]`, the melting point lay in the range of 129 to 131 °C.
For `O=C(CCCCCNC(=O)Cc1ccc(-c2ccccc2)cc1)NO` the value was 226 to 227 °C; for `Cc1cc2c(NC(=S)N3Cc4sccc4CC3CO)cccc2cn1` (racemic), 145 °C; for `CC(=C1SC(=O)NC1=O)c1ccc(NCCOc2c(-c3ccc(F)cc3)n(C)c3ccccc3c2=O)cc1`, 130 to 132 °C.
For `C[C@@H](n1cnc2cc(OCC(F)F)ccc2c1=O)[C@](O)(Cn1cncn1)c1ccc(F)cc1F` the value was 96 to 102 °C; for `CCc1cccc2sc(COc3ccc(F)c(C(N)=O)c3F)nc12`, 184 to 186 °C; for `CCCC[C@H](NC(=O)[C@H](CC(C)C)NC(=O)c1ccc(C)cc1)C(=O)CSCc1ccco1`, 122 to 123 °C.
For `O=C(N[C@H]1CC[C@H](CCN2CCN(c3nccc4c3CCO4)CC2)CC1)C1(O)CCC1` the value was 178 °C; for `CN(C)S(=O)(=O)c1cc(C(=O)CBr)ccc1Cl`, 98 °C.
Turning to `N#CCOc1cc2ccccc2cc1I`, the melting point lay within 105 to 107 °C.
